Patent publication US7138361B2, “Herbicidal heterocycles” (E. I. du Pont de Nemours and Company, priority 2000, dated 2006)

Tests used:
Format in all cases: in vivo
[1] = system: smallflower flatsedge (Cyperus difformis); assay: Test C flooded paddy test; conditions: for Flatsedge plant response rating: Flooded Paddy, scale 0 to 100, 0 no effect, 100 complete control; for Plant response rating, Flatsedge: flooded paddy test, scale 0 to 100 (0 no effect, 100 complete control)
Procedure, shortened: (§1)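 Plants were grown to the 2-leaf stage under flooded paddy conditions and treated. They were then kept in a greenhouse for 12 to 14 days and visually rated against untreated controls on a 0–100 scale, where 0 is no effect and 100 is complete control.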

[2] = system: barnyardgrass (Echinochloa crus-galli); assay: Test C flooded paddy test; conditions: for Barnyardgrass plant response rating: Flooded Paddy, scale 0 to 100, 0 no effect, 100 complete control; for Plant response rating, Barnyardgrass: flooded paddy test, scale 0 to 100 (0 no effect, 100 complete control)
Procedure, shortened: as §1

[3] = system: duck salad (Heteranthera limosa); assay: Test C flooded paddy test; conditions: for Ducksalad plant response rating: Flooded Paddy, scale 0 to 100, 0 no effect, 100 complete control; for Plant response rating, Ducksalad: flooded paddy test, scale 0 to 100 (0 no effect, 100 complete control)
Procedure, shortened: as §1

[4] = system: cocklebur (Xanthium strumarium); assay: Test C preemergence
Procedure, shortened: (§2)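 Test chemicals, formulated in a non-phytotoxic solvent mixture with surfactant, were applied preemergence to planted seeds or postemergence to plants 2 to 18 cm tall (1- to 4-leaf stage). After 12 to 14 days in a greenhouse, injury was visually rated against untreated controls on a 0–100 scale.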

[5] = system: goosegrass (Eleusine indica); assay: Test C preemergence
Procedure, shortened: as §2

[6] = system: pigweed (Amaranthus retroflexus); assay: Test C preemergence
Procedure, shortened: as §2

Sunflower [7] = assay: Test C preemergence
[8] = system: yellow nutsedge (Cyperus esculentus); assay: Test C preemergence
Procedure, shortened: as §2

[9] = system: bermudagrass (Cynodon dactylon); assay: Test C preemergence
Procedure, shortened: as §2

[10] = system: lambsquarters (Chenopodium album); assay: Test C preemergence
Procedure, shortened: as §2

corn (Zea mays) = assay: Test C preemergence
Procedure, shortened: as §2

[11] = system: giant foxtail (Setaria faberii); assay: Test C preemergence
Procedure, shortened: as §2

[12] = system: morningglory (Ipomoea hederacea); assay: Test C preemergence
Procedure, shortened: as §2

[13] = system: velvetleaf (Abutilon theophrasti); assay: Test C preemergence
Procedure, shortened: as §2

soybean (Glycine max) = assay: Test C preemergence
Procedure, shortened: as §2

kochia (Kochia scoparia) = assay: Test C preemergence
Procedure, shortened: as §2

[14] = system: woolly cupgrass (Eriochloa villosa); assay: Test C preemergence
Procedure, shortened: as §2

[15] = system: crabgrass (Digitaria sanguinalis); assay: Test C preemergence
Procedure, shortened: as §2

Nightshade = assay: Test C preemergence
[16] = system: Surinam grass (Brachiaria decumbens); assay: Test C preemergence
Procedure, shortened: as §2

[17] = system: johnsongrass (Sorghum halepense); assay: Test C preemergence
Procedure, shortened: as §2

Sunflower [18] = assay: Test C preemergence; conditions: Rate 250 g/ha, visual evaluation after 12 to 14 days
[19] = Preemergence, Rate 500 g/ha, scale 0 to 100
[20] = Rate 62 g/ha, scale 0 to 100, 0 no effect, 100 complete control
[21] = preemergence, Rate 31 g/ha, scale 0 to 100
[22] = preemergence, Rate 250 g/ha, visual evaluation after 12 to 14 days
[23] = preemergence, Rate 125 g/ha, scale 0 to 100, 0 no effect, 100 complete control

CC(C)(C)c1ccn(C2CCN(c3cccc(OC(F)(F)F)c3)C2=O)n1 (stereo not drawn) [Compound 49]
30: Plant response rating, Nutsedge [8, 21] | Plant response rating, Morningglory [12, 19] | Plant response rating (0 to 100), Velvetleaf [13, 22] | Plant response rating, Cupgrass, Woolly [14, 20] | Plant response rating, Nightshade (Nightshade; Rate 125 g/ha, scale 0 to 100, 0 no effect, 100 complete control) | Plant response rating (0 to 100), Sunflower (Sunflower [18])
70: Plant response rating, Ducksalad ([3]; Rate 125 g/ha) | Plant response rating, Pigweed [6, 21] | Plant response rating (0 to 100), Cupgrass, Woolly [14, 22] | Plant response rating (0 to 100), Surinam grass [16, 22]
0: Plant response rating, Cocklebur [4, 20] | Plant response rating, Cocklebur [4, 21] | Plant response rating (0 to 100), Cocklebur [4, 22] | Plant response rating, Cocklebur [4, 23] | Plant response rating, Goosegrass [5, 21] | Plant response rating, Nutsedge [8, 19] | Plant response rating (0 to 100), Nutsedge [8, 22] | Plant response rating, Bermudagrass [9, 21] | Plant response rating, Corn (corn (Zea mays); [19]) | Plant response rating, Corn (corn (Zea mays); [20]) | Plant response rating, Corn (corn (Zea mays); [21]) | Plant response rating (0 to 100), Corn (corn (Zea mays); [22]) | Plant response rating, Corn (corn (Zea mays); [23]) | Plant response rating, Foxtail, Giant [11, 20] | Plant response rating, Foxtail, Giant [11, 21] | Plant response rating, Morningglory [12, 20] | Plant response rating, Morningglory [12, 21] | Plant response rating (0 to 100), Morningglory [12, 22] | Plant response rating, Morningglory [12, 23] | Plant response rating, Velvetleaf [13, 20] | Plant response rating, Velvetleaf [13, 21] | Plant response rating, Velvetleaf [13, 23] | Plant response rating, Soybean (soybean (Glycine max); [20]) | Plant response rating, Soybean (soybean (Glycine max); [21]) | Plant response rating, Crabgrass [15, 21] | Plant response rating, Nightshade (Nightshade; Rate 31 g/ha, scale 0 to 100) | Plant response rating, Nightshade (Nightshade; [20]) | Plant response rating, Surinam grass [16, 20] | Plant response rating, Surinam grass [16, 21] | Plant response rating, Surinam grass [16, 23] | Plant response rating, Johnsongrass [17, 20] | Plant response rating, Johnsongrass [17, 21] | Plant response rating, Johnsongrass [17, 23]
60: Plant response rating, Cupgrass, Woolly [14, 23]
90: Ducksalad plant response rating ([3]; Rate 250 g/ha) | Plant response rating, Kochia (kochia (Kochia scoparia); [20]) | Plant response rating, Kochia (kochia (Kochia scoparia); [23]) | Plant response rating, Nightshade (Nightshade; Rate 500 g/ha, scale 0 to 100) | Plant response rating, Johnsongrass [17, 19]
50: Plant response rating, Ducksalad ([3]; Rate 62 g/ha) | Plant response rating, Nutsedge [8, 23] | Plant response rating (0 to 100), Soybean (soybean (Glycine max); [22]) | Plant response rating, Kochia (kochia (Kochia scoparia); [21]) | Plant response rating (0 to 100), Johnsongrass [17, 22]
80: Plant response rating, Sunflower (Sunflower [7]; Rate 500 g/ha, scale 0 to 100) | Plant response rating, Soybean (soybean (Glycine max); [19]) | Plant response rating, Surinam grass [16, 19]
40: Plant response rating, Nutsedge [8, 20] | Plant response rating, Velvetleaf [13, 19] | Plant response rating, Soybean (soybean (Glycine max); [23])
100: Flatsedge plant response rating ([1]; Rate 250 g/ha) | Flatsedge plant response rating ([1]; Rate 500 g/ha) | Plant response rating, Flatsedge ([1]; Rate 62 g/ha) | Plant response rating, Flatsedge ([1]; Rate 125 g/ha) | Barnyardgrass plant response rating ([2]; Rate 250 g/ha) | Barnyardgrass plant response rating ([2]; Rate 500 g/ha) | Plant response rating, Barnyardgrass ([2]; Rate 62 g/ha) | Plant response rating, Barnyardgrass ([2]; Rate 125 g/ha) | Ducksalad plant response rating ([3]; Rate 500 g/ha) | Plant response rating, Goosegrass [5, 19] | Plant response rating, Goosegrass [5, 20] | Plant response rating (0 to 100), Goosegrass [5, 22] | Plant response rating, Goosegrass [5, 23] | Plant response rating, Pigweed [6, 19] | Plant response rating, Pigweed [6, 20] | Plant response rating (0 to 100), Pigweed [6, 22] | Plant response rating, Pigweed [6, 23] | Plant response rating, Bermudagrass [9, 19] | Plant response rating, Bermudagrass [9, 20] | Plant response rating (0 to 100 where 0 is no effect and 100 is complete control), Bermudagrass [9, 22] | Plant response rating, Bermudagrass [9, 23] | Plant response rating, Lambsquarters [10, 19] | Plant response rating, Lambsquarters [10, 20] | Plant response rating, Lambsquarters [10, 21] | Plant response rating (0 to 100), Lambsquarters [10, 22] | Plant response rating, Lambsquarters [10, 23] | Plant response rating, Foxtail, Giant [11, 19] | Plant response rating (0 to 100), Foxtail, Giant [11, 22] | Plant response rating, Foxtail, Giant [11, 23] | Plant response rating, Kochia (kochia (Kochia scoparia); [19]) | Plant response rating (0 to 100), Kochia (kochia (Kochia scoparia); [22]) | Plant response rating, Cupgrass, Woolly [14, 19] | Plant response rating, Crabgrass [15, 19] | Plant response rating, Crabgrass [15, 20] | Plant response rating (0 to 100), Crabgrass [15, 22] | Plant response rating, Crabgrass [15, 23]
20: Plant response rating, Cocklebur [4, 19] | Plant response rating, Sunflower (Sunflower [7]; [20]) | Plant response rating, Cupgrass, Woolly [14, 21]
